{
  "source": "patent US9963445B2",
  "about": "“Chemical compounds” (SYNGENTA PARTICIPATIONS AG, priority 2013, dated 2018)",
  "assay_type_in_all_cases": "in vivo",
  "key": {"[1]": {"tested_on": "zea mays", "assay": "Post-emergence herbicidal activity, glasshouse pot test", "parameters": "key: 0 = no damage to plant, 5 = total damage to plant", "conditions": "Application post-emergence, rate 1000 g/ha, evaluated after 13 days", "procedure,_shortened": "(§1)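 Pot-grown seedlings, sown in standard soil, were sprayed 8 days after sowing and kept in a controlled glasshouse (24/16 °C, 14 h photoperiod, 65% humidity). Injury was assessed visually 13 days later on a scale where 5 means total damage.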"}, "[2]": {"tested_on": "Setaria faberi", "assay": "Post-emergence herbicidal activity, glasshouse pot test", "parameters": "key: 0 = no damage to plant, 5 = total damage to plant", "conditions": "Application post-emergence, rate 1000 g/ha, evaluated after 13 days", "procedure,_shortened": "as §1"}, "[3]": {"tested_on": "Amaranthus retroflexus", "assay": "Post-emergence herbicidal activity, glasshouse pot test", "parameters": "key: 0 = no damage to plant, 5 = total damage to plant", "conditions": "Application post-emergence, rate 1000 g/ha, evaluated after 13 days", "procedure,_shortened": "as §1"}, "[4]": {"tested_on": "Alopecurus myosuroides", "assay": "Post-emergence herbicidal activity, glasshouse pot test", "parameters": "key: 0 = no damage to plant, 5 = total damage to plant", "conditions": "Application post-emergence, rate 1000 g/ha, evaluated after 13 days", "procedure,_shortened": "as §1"}, "[5]": {"tested_on": "Abutilon theophrasti", "assay": "Post-emergence herbicidal activity, glasshouse pot test", "parameters": "key: 0 = no damage to plant, 5 = total damage to plant", "conditions": "Application post-emergence, rate 1000 g/ha, evaluated after 13 days", "procedure,_shortened": "as §1"}, "[6]": {"tested_on": "Echinochloa crus-galli", "assay": "Post-emergence herbicidal activity, glasshouse pot test", "parameters": "key: 0 = no damage to plant, 5 = total damage to plant", "conditions": "Application post-emergence, rate 1000 g/ha, evaluated after 13 days", "procedure,_shortened": "as §1"}, "[7]": {"tested_on": "zea mays", "assay": "Pre-emergence herbicidal activity, glasshouse pot test", "conditions": "pre-emergence spray, rate 1000 g/ha, evaluated after 13 days, scale 0-5", "procedure,_shortened": "(§2)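 Glasshouse conditions were 24/16 °C day/night with 14 h light and 65% humidity throughout. Soil was sprayed before emergence, one day after sowing, using an acetone/water (50:50) formulation with 0.5% Tween 20; injury was scored 0–5 after 13 days.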"}, "[8]": {"tested_on": "Setaria faberi", "assay": "Pre-emergence herbicidal activity, glasshouse pot test", "conditions": "pre-emergence spray, rate 1000 g/ha, evaluated after 13 days, scale 0-5", "procedure,_shortened": "as §2"}, "[9]": {"tested_on": "Amaranthus retroflexus", "assay": "Pre-emergence herbicidal activity, glasshouse pot test", "conditions": "pre-emergence spray, rate 1000 g/ha, evaluated after 13 days, scale 0-5", "procedure,_shortened": "as §2"}, "[10]": {"tested_on": "Alopecurus myosuroides", "assay": "Pre-emergence herbicidal activity, glasshouse pot test", "conditions": "pre-emergence spray, rate 1000 g/ha, evaluated after 13 days, scale 0-5", "procedure,_shortened": "as §2"}, "[11]": {"tested_on": "Abutilon theophrasti", "assay": "Pre-emergence herbicidal activity, glasshouse pot test", "conditions": "pre-emergence spray, rate 1000 g/ha, evaluated after 13 days, scale 0-5", "procedure,_shortened": "as §2"}, "[12]": {"tested_on": "Echinochloa crus-galli", "assay": "Pre-emergence herbicidal activity, glasshouse pot test", "conditions": "pre-emergence spray, rate 1000 g/ha, evaluated after 13 days, scale 0-5", "procedure,_shortened": "as §2"}},
  "data": [
    {"compound": "COC1=C(C)C(O)N(c2cc(C(F)(F)F)c(Cl)nn2)C1=O", "note": "(stereo not drawn) [BI9]", "values": [
      {"measurement": "ZEAMX herbicidal damage score", "setting": "[1]", "result": 4},
      {"measurement": "SETFA herbicidal damage score", "setting": "[2]", "result": 5},
      {"measurement": "AMARE herbicidal damage score", "setting": "[3]", "result": 5},
      {"measurement": "ALOMY herbicidal damage score", "setting": "[4]", "result": 5},
      {"measurement": "ABUTH herbicidal damage score", "setting": "[5]", "result": 5},
      {"measurement": "ECHCG herbicidal damage score", "setting": "[6]", "result": 5},
      {"measurement": "ZEAMX damage score, application pre-emergence", "setting": "[7]", "result": 2},
      {"measurement": "SETFA damage score, application pre-emergence", "setting": "[8]", "result": 2},
      {"measurement": "AMARE damage score, application pre-emergence", "setting": "[9]", "result": 5},
      {"measurement": "ALOMY damage score, application pre-emergence", "setting": "[10]", "result": 4},
      {"measurement": "ABUTH damage score, application pre-emergence", "setting": "[11]", "result": 1},
      {"measurement": "ECHCG damage score, application pre-emergence", "setting": "[12]", "result": 4}
    ]},
    {"compound": "COC1=C(C)C(O)N(c2cc(C(C)F)c(Cl)nn2)C1=O", "note": "(stereo not drawn) [BI10]", "values": [
      {"measurement": "ZEAMX herbicidal damage score", "setting": "[1]", "result": 3},
      {"measurement": "SETFA herbicidal damage score", "setting": "[2]", "result": 5},
      {"measurement": "AMARE herbicidal damage score", "setting": "[3]", "result": 5},
      {"measurement": "ALOMY herbicidal damage score", "setting": "[4]", "result": 4},
      {"measurement": "ABUTH herbicidal damage score", "setting": "[5]", "result": 5},
      {"measurement": "ECHCG herbicidal damage score", "setting": "[6]", "result": 5},
      {"measurement": "ZEAMX damage score, application pre-emergence", "setting": "[7]", "result": 2},
      {"measurement": "SETFA damage score, application pre-emergence", "setting": "[8]", "result": 2},
      {"measurement": "AMARE damage score, application pre-emergence", "setting": "[9]", "result": 5},
      {"measurement": "ALOMY damage score, application pre-emergence", "setting": "[10]", "result": 3},
      {"measurement": "ABUTH damage score, application pre-emergence", "setting": "[11]", "result": 5},
      {"measurement": "ECHCG damage score, application pre-emergence", "setting": "[12]", "result": 4}
    ]},
    {"compound": "COC1=C(C)C(O)N(c2cc(C(C)(C)F)c(-c3ccc(F)cc3)nn2)C1=O", "note": "(stereo not drawn) [BI11]", "values": [
      {"measurement": "ZEAMX herbicidal damage score", "setting": "[1]", "result": 2},
      {"measurement": "SETFA herbicidal damage score", "setting": "[2]", "result": 5},
      {"measurement": "AMARE herbicidal damage score", "setting": "[3]", "result": 5},
      {"measurement": "ALOMY herbicidal damage score", "setting": "[4]", "result": 4},
      {"measurement": "ABUTH herbicidal damage score", "setting": "[5]", "result": 4},
      {"measurement": "ECHCG herbicidal damage score", "setting": "[6]", "result": 4},
      {"measurement": "ZEAMX damage score, application pre-emergence", "setting": "[7]", "result": 2},
      {"measurement": "SETFA damage score, application pre-emergence", "setting": "[8]", "result": 4},
      {"measurement": "AMARE damage score, application pre-emergence", "setting": "[9]", "result": 5},
      {"measurement": "ALOMY damage score, application pre-emergence", "setting": "[10]", "result": 2},
      {"measurement": "ABUTH damage score, application pre-emergence", "setting": "[11]", "result": 4},
      {"measurement": "ECHCG damage score, application pre-emergence", "setting": "[12]", "result": 2}
    ]},
    {"compound": "CC#Cc1nnc(N2C(=O)C(OC)=C(C)C2O)cc1C(C)(C)F", "note": "(stereo not drawn) [BI12]", "values": [
      {"measurement": "ZEAMX herbicidal damage score", "setting": "[1]", "result": 4},
      {"measurement": "SETFA herbicidal damage score", "setting": "[2]", "result": 5},
      {"measurement": "AMARE herbicidal damage score", "setting": "[3]", "result": 5},
      {"measurement": "ALOMY herbicidal damage score", "setting": "[4]", "result": 4},
      {"measurement": "ABUTH herbicidal damage score", "setting": "[5]", "result": 5},
      {"measurement": "ECHCG herbicidal damage score", "setting": "[6]", "result": 5},
      {"measurement": "ZEAMX damage score, application pre-emergence", "setting": "[7]", "result": 3},
      {"measurement": "SETFA damage score, application pre-emergence", "setting": "[8]", "result": 5},
      {"measurement": "AMARE damage score, application pre-emergence", "setting": "[9]", "result": 5},
      {"measurement": "ALOMY damage score, application pre-emergence", "setting": "[10]", "result": 2},
      {"measurement": "ABUTH damage score, application pre-emergence", "setting": "[11]", "result": 4},
      {"measurement": "ECHCG damage score, application pre-emergence", "setting": "[12]", "result": 4}
    ]},
    {"compound": "C=C(OCC)c1nnc(N2C(=O)C(OC)=C(C)C2O)cc1C(C)(C)F", "note": "(stereo not drawn) [BI13]", "values": [
      {"measurement": "ZEAMX herbicidal damage score", "setting": "[1]", "result": 2},
      {"measurement": "SETFA herbicidal damage score", "setting": "[2]", "result": 5},
      {"measurement": "AMARE herbicidal damage score", "setting": "[3]", "result": 5},
      {"measurement": "ALOMY herbicidal damage score", "setting": "[4]", "result": 5},
      {"measurement": "ABUTH herbicidal damage score", "setting": "[5]", "result": 5},
      {"measurement": "ECHCG herbicidal damage score", "setting": "[6]", "result": 5},
      {"measurement": "ZEAMX damage score, application pre-emergence", "setting": "[7]", "result": 2},
      {"measurement": "SETFA damage score, application pre-emergence", "setting": "[8]", "result": 5},
      {"measurement": "AMARE damage score, application pre-emergence", "setting": "[9]", "result": 5},
      {"measurement": "ALOMY damage score, application pre-emergence", "setting": "[10]", "result": 4},
      {"measurement": "ABUTH damage score, application pre-emergence", "setting": "[11]", "result": 5},
      {"measurement": "ECHCG damage score, application pre-emergence", "setting": "[12]", "result": 5}
    ]},
    {"compound": "COC1=C(C)C(O)N(c2cc(C(C)(C)F)c(Cl)nn2)C1=O", "note": "(stereo not drawn) [BI14]", "values": [
      {"measurement": "ZEAMX herbicidal damage score", "setting": "[1]", "result": 4},
      {"measurement": "SETFA herbicidal damage score", "setting": "[2]", "result": 5},
      {"measurement": "AMARE herbicidal damage score", "setting": "[3]", "result": 5},
      {"measurement": "ALOMY herbicidal damage score", "setting": "[4]", "result": 5},
      {"measurement": "ABUTH herbicidal damage score", "setting": "[5]", "result": 5},
      {"measurement": "ECHCG herbicidal damage score", "setting": "[6]", "result": 5},
      {"measurement": "ZEAMX damage score, application pre-emergence", "setting": "[7]", "result": 3},
      {"measurement": "SETFA damage score, application pre-emergence", "setting": "[8]", "result": 5},
      {"measurement": "AMARE damage score, application pre-emergence", "setting": "[9]", "result": 5},
      {"measurement": "ALOMY damage score, application pre-emergence", "setting": "[10]", "result": 3},
      {"measurement": "ABUTH damage score, application pre-emergence", "setting": "[11]", "result": 3},
      {"measurement": "ECHCG damage score, application pre-emergence", "setting": "[12]", "result": 4}
    ]},
    {"compound": "COC1=C(C)C(O)N(c2cc(C(C)(C)F)c(C#N)nn2)C1=O", "note": "(stereo not drawn) [BI15]", "values": [
      {"measurement": "ZEAMX herbicidal damage score", "setting": "[1]", "result": 2},
      {"measurement": "SETFA herbicidal damage score", "setting": "[2]", "result": 5},
      {"measurement": "AMARE herbicidal damage score", "setting": "[3]", "result": 5},
      {"measurement": "ALOMY herbicidal damage score", "setting": "[4]", "result": 4},
      {"measurement": "ABUTH herbicidal damage score", "setting": "[5]", "result": 5},
      {"measurement": "ECHCG herbicidal damage score", "setting": "[6]", "result": 5},
      {"measurement": "ZEAMX damage score, application pre-emergence", "setting": "[7]", "result": 2},
      {"measurement": "SETFA damage score, application pre-emergence", "setting": "[8]", "result": 5},
      {"measurement": "AMARE damage score, application pre-emergence", "setting": "[9]", "result": 5},
      {"measurement": "ALOMY damage score, application pre-emergence", "setting": "[10]", "result": 4},
      {"measurement": "ABUTH damage score, application pre-emergence", "setting": "[11]", "result": 5},
      {"measurement": "ECHCG damage score, application pre-emergence", "setting": "[12]", "result": 5}
    ]}
  ]
}
